We go through 1 molecule from ChEMBL document CHEMBL3046219, “Inhibitive Effect of Prodigiosin on the Proliferation of Human Malignant Pancreatic Cancer Cells” (Med Chem Res, 2005).

The species entered for data set [1] is Homo sapiens. Briefly: Induction of apoptosis in Homo sapiens (human) H8898 cells at 12.5 to 50 umol after 24 hr by FACS analysis. The class given is functional.
The species named for data set [2] is Homo sapiens. Briefly: Cytotoxicity against Homo sapiens (human) H8898 cells assessed as reduction in cell viability at 50 umol up to 5 days by MTT assay. The class given is functional, cell-based. (Tetrazolium dyes change colour on reduction, which living cells bring about.)
The species entered for data set [3] is Homo sapiens. As to the kind of experiment: Cytotoxicity against Homo sapiens (human) H8898 cells assessed as reduction in cell viability at 50 umol at 12 hr by MTT assay. It is filed as functional, cell-based.
A short description of data set [4]: Cell cycle arrest in Homo sapiens (human) H8898 cells assessed as reduction in S phase cells at 12 to 50 umol after 24 hr by flow cytometry. It is filed as functional, cell-based. In general terms: In flow cytometry, cells or beads pass a laser one at a time.
The species entered for data set [5] is Homo sapiens. As to the kind of experiment: Cytotoxicity against Homo sapiens (human) H8898 cells assessed as reduction in cell viability at 50 umol by MTT assay. It is filed as functional, cell-based. The settings on record: TDE = time-dependent effect.
The species entered for data set [6] is Homo sapiens. As to the kind of experiment: Induction of apoptosis in Homo sapiens (human) H8898 cells assessed as cytoplasm leakage into membrane bound vesicles at 12.5 umol after 12 hr by microscopy. The class given is functional.
Data set [7] is described as follows: Cytotoxicity against Homo sapiens (human) H8898 cells assessed as reduction in cell viability at 50 umol after 8 to 12 hr by MTT assay. It is filed as functional.
The species entered for data set [8] is Homo sapiens. Briefly: Antiproliferative activity against Homo sapiens (human) H8898 cells after 5 days using trypan blue staining by hemocytometry. It is filed as functional.
Data set [9] in a line: Cell cycle arrest in Homo sapiens (human) H8898 cells assessed as increase in G0-G1 phase cells at 12 to 50 umol after 24 hr by flow cytometry. It is filed as functional, cell-based.
The nature of data set [10]: Cytotoxicity against Homo sapiens (human) H8898 cells assessed as reduction in cell viability at 50 umol after 12 hr by MTT assay. It is filed as functional.
A short description of data set [11]: Drug uptake in Homo sapiens (human) H8898 cells after 24 hr by HPLC analysis. It is filed as ADME.
Data set [12] is filed under the species Homo sapiens. Briefly: Induction of DNA fragmentation in Homo sapiens (human) H8898 cells at 50 umol after 24 hr by agarose gel electrophoresis. The class given is functional.
Data set [13] is filed under the species Homo sapiens. As to the kind of experiment: Inhibition of clone formation in Homo sapiens (human) H8898 cells after 5 days using trypan blue staining by inverted microscopy. It is filed as functional.
A short description of data set [14]: Cytotoxicity against Homo sapiens (human) H8898 cells assessed as reduction in cell viability at 25 umol after 12 hr by MTT assay. The class given is functional.
For data set [15], the species on record is Homo sapiens. Briefly: Cytotoxicity against Homo sapiens (human) H8898 cells assessed as reduction in cell viability at 50 umol after 2 days by MTT assay. It is filed as functional, cell-based.
For data set [16], the species on record is Homo sapiens. Briefly: Induction of oxidative stress in Homo sapiens (human) H8898 cells assessed as increase in intracellular ROS level after 12 hr using CDCFH-DA by spectrophotometry. It is filed as functional, cell-based.
A short description of data set [17]: (§1) Cytotoxicity against Homo sapiens (human) H8898 cells assessed as reduction in cell viability after 12 hr by MTT assay. It is filed as functional, cell-based.
Data set [18] is filed under the species Homo sapiens. The description is as §1. It is filed as functional, cell-based.
Data set [19] is filed under the species Homo sapiens. Briefly: Induction of apoptosis in Homo sapiens (human) H8898 cells assessed as cell compaction at 12.5 umol after 12 hr by microscopy. The class given is functional.
Data set [20] in a line: Cell cycle arrest in Homo sapiens (human) H8898 cells assessed as retardation at G1/S phase at 12 to 50 umol after 24 hr by flow cytometry. It is filed as functional.
Data set [21] is filed under the species Homo sapiens. As to the kind of experiment: Induction of DNA fragmentation in Homo sapiens (human) H8898 cells at 12.5 umol after 24 hr by agarose gel electrophoresis. It is filed as functional.

Active and inactive are the calls of the source. The rule behind the calls is not given here.

One may read the IC50 as the concentration that gives 50% inhibition. Take `CCCCCC1=C/C(=C/c2[nH]c(-c3ccc[nH]3)cc2OC)N=C1C` [PRODIGIOSIN]: the result (in the data set filed under Homo sapiens [1]; in the data set listed under Homo sapiens [2]; in the data set listed under Homo sapiens [3]; in data set [4]; in the data set filed under Homo sapiens [6]; in the data set filed under Homo sapiens [8]) was Active. The outcome (in data set [9]; in the data set filed under Homo sapiens [12]; in the data set listed under Homo sapiens [13]; in the data set listed under Homo sapiens [15]; in the data set listed under Homo sapiens [19]; in [20]) was Active. In addition, the outcome in the data set filed under Homo sapiens [21] was Active. Further, the Activity entry in the data set filed under Homo sapiens [5] is “tde”; in data set [7], 28%; in [10] it was 34%; in data set [14] it was 5.6%; in the data set filed under Homo sapiens [16], “Dose-dependent effect”; in the data set listed under Homo sapiens [18] it was “Dose-dependent effect”. Besides, in data set [11], the Drug uptake result is on record as “Dose-dependent effect”. For the same molecule, the IC50 in [17] came to 75 µM.
